Patent publication US7692038B2, “Crystalline forms” (Pfizer, Inc., priority 2006, dated 2010)

What was measured:
[1] = Hygroscopicity by dynamic vapour sorption (DVS), water sorption and desorption; format: physicochemical; settings: 30° C.
Description: Hygroscopicity was assessed for forms I and II using dynamic vapour sorption (DVS). The samples were characterised using a Surface Measurement Systems Ltd, dynamic vapour sorption equipment, model DVS-1. The analysis was conducted at 30° C. with a nitrogen gas flow of 200 cc/min. Water sorption and desorption were determined in the range 0 to 90% relative humidity (RH) using 15% RH intervals. Exposure was for a minimum of two hours at each humidity, or until the rate of weight change was less than 0.0005%/minute (averaged over 10 minutes). Sample weights were in the range 23-36 mg. The samples were weighed using a CAHN D-200, seven place digital recording balance, which is an integral part of the equipment. The results are tabulated below in Tables 6 and 7 and plotted in FIGS. 15 and 16.

[2] = Relative thermodynamic stability of polymorphs (slurry conversion); format: physicochemical; settings: ambient temperature
Description: The crystalline forms of the invention may be prepared by the processes described below. The skilled person will understand that the preparation of particular polymorphic forms of a compound can sometimes be problematic, and that small changes in reaction conditions can sometimes result in an unexpected product. In particular, the presence of seeds in the atmosphere under which the experiment is conducted can have a decisive outcome on the result. The processes described below, however, are generally reliable. […] The form I polymorph is the more kinetically favoured product at ambient temperature and its formation is encouraged by rapid crystallisation techniques such as rapid cooling. Seeding with the desired product will obviously increase success in these preparations. Preparation of form I material is particularly encouraged by the use of a form I seed which contains a mixture of diastereomers due to epimerisation at the modified aspartate residue.
Pure form II may be prepared by slurrying a mixture of forms I and II in acetonitrile at room temperature until full conversion has taken place (typically a few days, e.g. 3 days). The product is then filtered off and dried (e.g. in a vacuum oven). The following procedures are illustrative.
A 40:60 mixture (by weight) of forms I and II was slurried in acetonitrile and left for three days. […]

Structure (SMILES) | Water Sorption (% w/dry w) Desorption ([1]; 15% RH) | Water Sorption (% w/dry w) Sorption ([1]; 15% RH) | Water Sorption (% w/dry w) Desorption ([1]; 30% RH) | Water Sorption (% w/dry w) Sorption ([1]; 30% RH) | Water Sorption (% w/dry w) Desorption ([1]; 45% RH) | Water Sorption (% w/dry w) Sorption ([1]; 45% RH) | Water Sorption (% w/dry w) Desorption ([1]; 60% RH) | Water Sorption (% w/dry w) Sorption ([1]; 60% RH) | Water Sorption (% w/dry w) Desorption ([1]; 75% RH) | Water Sorption (% w/dry w) Sorption ([1]; 75% RH) | Water Sorption (% w/dry w) Desorption ([1]; 90% RH) | Water Sorption (% w/dry w) Sorption ([1]; 90% RH) | Thermodynamic stability of the polymorph [2]
C[C@H](NC(=O)C(=O)Nc1ccccc1C(C)(C)C)C(=O)N[C@@H](CC(=O)O)C(=O)COc1c(F)c(F)cc(F)c1F [Form I, (3S)-3-[N—(N′-(2-tert-butylphenyl)oxamyl)alaninyl]amino-5-(2′,3′,5′,6′-tetrafluorophenoxy)-4-oxopentanoic acid] | 0.015 % w/dry w | 0.018 % w/dry w | 0.025 % w/dry w | 0.028 % w/dry w | 0.037 % w/dry w | 0.049 % w/dry w | 0.055 % w/dry w | 0.072 % w/dry w | 0.105 % w/dry w | 0.110 % w/dry w | 0.208 % w/dry w | 0.208 % w/dry w | –
C[C@H](NC(=O)C(=O)Nc1ccccc1C(C)(C)C)C(=O)N[C@@H](CC(=O)O)C(=O)COc1c(F)c(F)cc(F)c1F [Form II, (3S)-3-[N—(N′-(2-tert-butylphenyl)oxamyl)alaninyl]amino-5-(2′,3′,5′,6′-tetrafluorophenoxy)-4-oxopentanoic acid] | 0.009 % w/dry w | 0.007 % w/dry w | 0.015 % w/dry w | 0.014 % w/dry w | 0.021 % w/dry w | 0.020 % w/dry w | 0.031 % w/dry w | 0.029 % w/dry w | 0.044 % w/dry w | 0.042 % w/dry w | 0.057 % w/dry w | 0.057 % w/dry w | most thermodynamically stable
